Laboratory results: US20210085640A1, “ACYLATED CATECHIN POLYPHENOLS AND METHODS OF THEIR USE FOR THE TREATMENT OF CANCER” (Flagship Pioneering Innovations V, Inc., priority 2018, published 2021)

What was measured:
Assay type in all cases: cell-based
[1] = tested on: T24 bladder cancer cells; experiment: Cancer cell survival (CellTiter-Glo), T24; settings: 72 h
Protocol: (§1) The cells were prepared as follows. Cells were harvested during logarithmic growth, counted, and adjusted to 4.44×10^4 cells/mL with culture media. 90 μL of suspended cells were added to wells of 96-well plates for a final cell count of 4×10^3 cells/well. The plates were incubated overnight at 37 C with 5% CO2 overnight.
(§2) The test compounds were assayed as follows. Compound solutions were mixed at 10× final concentrations in cell media: 1 μM-10 mM (fatty acids) or 100 nM-1 mM (all other compounds). […] of solution was added to each well of cells in triplicate for each concentration. Well plates were incubated for 72 h at 37 C with 5% CO2 and then assayed with CellTiter-Glo by adding 50 μL of CTG solution to each well. Cells were lysed by shaking on an orbital shaker for 5 min. Plates were incubated at room temperature for 20 min and then each well's luminescence was measured. The surviving percentage of cells was determined as:
(§3) Survival %=(LumTest article−LumMedium control)/(LumNone treated−LumMedium control)[…]
Efficacy was assessed at nine concentration levels for each compound and the 50% inhibition concentration (IC50) determined for each compound.

[2] = tested on: Daudi lymphoma cancer cells; experiment: Cancer cell survival (CellTiter-Glo), Daudi; settings: 72 h
Protocol: as §1, §2, §3
Activity was assessed at nine concentration levels for each compound and the 50% inhibition concentration (IC50) determined for each compound.

[3] = tested on: MCF7 breast cancer cells; experiment: Cancer cell survival (CellTiter-Glo), MCF7; settings: 72 h
Protocol: as §1, §2, §3
(§4) Cytotoxicity was assessed at nine concentration levels for each compound and the 50% inhibition concentration (IC50) determined for each compound.

[4] = tested on: HCT 116 colorectal cancer cells; experiment: Cancer cell survival (CellTiter-Glo), HCT 116; settings: HCT 116 cells, 72 h
Protocol: as §1, §2, §3, §4

[5] = tested on: A549 lung cancer cells; experiment: Cancer cell survival (CellTiter-Glo), A549; settings: 72 h
Protocol: as §1, §2, §3, §4

[6] = tested on: PC-3 prostate cancer cells; experiment: Cancer cell survival (CellTiter-Glo), PC-3; settings: PC-3 cells, 72 h
Protocol: as §1, §2, §3, §4

[7] = tested on: A-431 skin cancer cells; experiment: Cancer cell survival (CellTiter-Glo), A-431; set-up: Cell survival at given concentration: unit not given here; settings: A-431 cells, 72 h
Protocol: as §1, §2, §3, §4

[8] = tested on: AGS stomach cancer cells; experiment: Cancer cell survival (CellTiter-Glo), AGS; set-up: Cell survival at given concentration: unit not given here
Protocol: as §1, §2, §3, §4

SMILES: Cc1c(C)c2c(c(C)c1O)CC[C@@](C)(CCC[C@H](C)CCC[C@H](C)CCCC(C)C)O2 [alpha-tocopherol]
- Cell survival at given concentration ([1]; 101 nM): 1.02
- Cell survival at given concentration ([1]; 318 nM): 1.01
- Cell survival at given concentration ([1]; 1 μM): 0.96
- Cell survival at given concentration ([1]; 3 μM): 1.00
- Cell survival at given concentration ([1]; 10 μM): 0.99
- Cell survival at given concentration ([1]; 32 μM): 1.06
- Cell survival at given concentration ([1]; 100 μM): 0.98
- Cell survival at given concentration ([1]; 316 μM): 1.07
- Cell survival at given concentration ([1]; 1000 μM): 1.02
- Cell survival at given concentration ([2]; 101 nM): 0.98
- Cell survival at given concentration ([2]; 318 nM): 0.99
- Cell survival at given concentration ([2]; 1 μM): 1.01
- Cell survival at given concentration ([2]; 3 μM): 1.00
- Cell survival at given concentration ([2]; 10 μM): 1.02
- Cell survival at given concentration ([2]; 32 μM): 1.04
- Cell survival at given concentration ([2]; 100 μM): 1.04
- Cell survival at given concentration ([2]; 316 μM): 1.03
- Cell survival at given concentration ([2]; 1000 μM): 1.02
- Cell survival at given concentration ([3]; 101 nM): 1.02
- Cell survival at given concentration ([3]; 318 nM): 1.02
- Cell survival at given concentration ([3]; 1 μM): 1.04
- Cell survival at given concentration ([3]; 3 μM): 1.05
- Cell survival at given concentration ([3]; 10 μM): 1.05
- Cell survival at given concentration ([3]; 32 μM): 1.04
- Cell survival at given concentration ([3]; 100 μM): 1.03
- Cell survival at given concentration ([3]; 316 μM): 1.02
- Cell survival at given concentration ([3]; 1000 μM): 1.01
- Cell survival at given concentration ([4]; 101 nM): 0.99
- Cell survival at given concentration ([4]; 318 nM): 0.98
- Cell survival at given concentration ([4]; 1 μM): 1.00
- Cell survival at given concentration ([4]; 3 μM): 1.01
- Cell survival at given concentration ([4]; 10 μM): 1.01
- Cell survival at given concentration ([4]; 32 μM): 1.03
- Cell survival at given concentration ([4]; 100 μM): 1.03
- Cell survival at given concentration ([4]; 316 μM): 0.98
- Cell survival at given concentration ([4]; 1000 μM): 0.97
- Cell survival at given concentration ([5]; 101 nM): 1.03
- Cell survival at given concentration ([5]; 318 nM): 1.05
- Cell survival at given concentration ([5]; 1 μM): 1.06
- Cell survival at given concentration ([5]; 3 μM): 1.04
- Cell survival at given concentration ([5]; 10 μM): 1.08
- Cell survival at given concentration ([5]; 32 μM): 1.09
- Cell survival at given concentration ([5]; 100 μM): 1.08
- Cell survival at given concentration ([5]; 316 μM): 1.07
- Cell survival at given concentration ([5]; 1000 μM): 1.02
- Cell survival at given concentration ([6]; 101 nM): 1.01
- Cell survival at given concentration ([6]; 318 nM): 0.99
- Cell survival at given concentration ([6]; 1 μM): 1.04
- Cell survival at given concentration ([6]; 3 μM): 1.00
- Cell survival at given concentration ([6]; 10 μM): 1.03
- Cell survival at given concentration ([6]; 32 μM): 1.00
- Cell survival at given concentration ([6]; 100 μM): 0.99
- Cell survival at given concentration ([6]; 316 μM): 1.02
- Cell survival at given concentration ([6]; 1000 μM): 1.01
- Cell survival at given concentration ([7]; 101 nM): 1.00
- Cell survival at given concentration ([7]; 318 nM): 0.99
- Cell survival at given concentration ([7]; 1 μM): 1.01
- Cell survival at given concentration ([7]; 3 μM): 1.01
- Cell survival at given concentration ([7]; 10 μM): 1.03
- Cell survival at given concentration ([7]; 32 μM): 1.01
- Cell survival at given concentration ([7]; 100 μM): 1.02
- Cell survival at given concentration ([7]; 316 μM): 1.01
- Cell survival at given concentration ([7]; 1000 μM): 1.04
- Cell survival at given concentration ([8]; 101 nM): 1.03
- Cell survival at given concentration ([8]; 318 nM): 1.03
- Cell survival at given concentration ([8]; 1 μM, Table 10.1): 1.07
- Cell survival at given concentration ([8]; 3 μM, Table 10.1): 1.04
- Cell survival at given concentration ([8]; 10 μM, Table 10.1): 1.07
- Cell survival at given concentration ([8]; 32 μM, Table 10.1): 1.06
- Cell survival at given concentration ([8]; 100 μM, Table 10.1): 1.09
- Cell survival at given concentration ([8]; 316 μM): 1.06
- Cell survival at given concentration ([8]; 1000 μM): 1.06
